Source: ChEMBL document CHEMBL5724914, “Linking interpersonal differences in gut microbiota composition and drug biotransformation activity” (2024)

Conditions: human gut metagenome, 24 h, 2 µM
Note: call rule not given here.

Row | Bacterial Biotransformation | Compound
1 | Compound NOT metabolized | CCCc1nn(C)c2c(=O)[nH]c(-c3cc(S(=O)(=O)N4CCN(C)CC4)ccc3OCC)nc12.O=C(O)CC(O)(CC(=O)O)C(=O)O [SILDENAFIL CITRATE]

Conditions: human gut metagenome, 24 h, 2 µM
Remark: another data set of the same source

Row | Bacterial Biotransformation | Compound
2 | Compound NOT metabolized | CCCc1nn(C)c2c(=O)[nH]c(-c3cc(S(=O)(=O)N4CCN(C)CC4)ccc3OCC)nc12.O=C(O)CC(O)(CC(=O)O)C(=O)O [SILDENAFIL CITRATE]

Test: (§1) The drug is tested on Z-022 corresponding to mouse gut metagenome with ENA study accession number: PRJEB37062 and ENA sample accession number: ERS12561821 for biotransformation under anaerobic condition. The drug concentrations were measured over 9 timepoints collected between 0 and 24 hours of incubation by liquid-chromatography-coupled mass spectrometry (LC–MS)
Conditions: 2 µM

Row | Bacterial Biotransformation | Compound
3 | Compound metabolized | CCCc1nn(C)c2c(=O)[nH]c(-c3cc(S(=O)(=O)N4CCN(C)CC4)ccc3OCC)nc12.O=C(O)CC(O)(CC(=O)O)C(=O)O [SILDENAFIL CITRATE]

Conditions: human gut metagenome, 24 h, 2 µM
Remark: another data set of the same source

Row | Bacterial Biotransformation | Compound
4 | Compound NOT metabolized | CCCc1nn(C)c2c(=O)[nH]c(-c3cc(S(=O)(=O)N4CCN(C)CC4)ccc3OCC)nc12.O=C(O)CC(O)(CC(=O)O)C(=O)O [SILDENAFIL CITRATE]

Conditions: human gut metagenome, 24 h, 2 µM
Remark: another data set of the same source

Row | Bacterial Biotransformation | Compound
5 | Compound NOT metabolized | CCCc1nn(C)c2c(=O)[nH]c(-c3cc(S(=O)(=O)N4CCN(C)CC4)ccc3OCC)nc12.O=C(O)CC(O)(CC(=O)O)C(=O)O [SILDENAFIL CITRATE]

Test: as §1, with “WLS-350” for “Z-022”, “human” for “mouse”, “ERS12561789” for “ERS12561821”
Conditions: 2 µM

Row | Bacterial Biotransformation | Compound
6 | Compound NOT metabolized | CCCc1nn(C)c2c(=O)[nH]c(-c3cc(S(=O)(=O)N4CCN(C)CC4)ccc3OCC)nc12.O=C(O)CC(O)(CC(=O)O)C(=O)O [SILDENAFIL CITRATE]

Conditions: human gut metagenome, 24 h, 2 µM
Remark: another data set of the same source

Row | Bacterial Biotransformation | Compound
7 | Compound NOT metabolized | CCCc1nn(C)c2c(=O)[nH]c(-c3cc(S(=O)(=O)N4CCN(C)CC4)ccc3OCC)nc12.O=C(O)CC(O)(CC(=O)O)C(=O)O [SILDENAFIL CITRATE]

Test: as §1, with “Z-029” for “Z-022”, “rat” for “mouse”, “ERS12561828” for “ERS12561821”
Conditions: 2 µM

Row | Bacterial Biotransformation | Compound
8 | Compound NOT metabolized | CCCc1nn(C)c2c(=O)[nH]c(-c3cc(S(=O)(=O)N4CCN(C)CC4)ccc3OCC)nc12.O=C(O)CC(O)(CC(=O)O)C(=O)O [SILDENAFIL CITRATE]

Conditions: human gut metagenome, 24 h, 2 µM
Remark: another data set of the same source

Row | Bacterial Biotransformation | Compound
9 | Compound NOT metabolized | CCCc1nn(C)c2c(=O)[nH]c(-c3cc(S(=O)(=O)N4CCN(C)CC4)ccc3OCC)nc12.O=C(O)CC(O)(CC(=O)O)C(=O)O [SILDENAFIL CITRATE]

Conditions: human gut metagenome, 24 h, 2 µM
Remark: another data set of the same source

Row | Bacterial Biotransformation | Compound
10 | Compound NOT metabolized | CCCc1nn(C)c2c(=O)[nH]c(-c3cc(S(=O)(=O)N4CCN(C)CC4)ccc3OCC)nc12.O=C(O)CC(O)(CC(=O)O)C(=O)O [SILDENAFIL CITRATE]

Test: as §1, with “Z-017” for “Z-022”, “ERS12561816” for “ERS12561821”
Conditions: 2 µM

Row | Bacterial Biotransformation | Compound
11 | Compound NOT metabolized | CCCc1nn(C)c2c(=O)[nH]c(-c3cc(S(=O)(=O)N4CCN(C)CC4)ccc3OCC)nc12.O=C(O)CC(O)(CC(=O)O)C(=O)O [SILDENAFIL CITRATE]

Test: as §1, with “WLS-220” for “Z-022”, “human” for “mouse”, “ERS12561769” for “ERS12561821”
Conditions: 2 µM

Row | Bacterial Biotransformation | Compound
12 | Compound NOT metabolized | CCCc1nn(C)c2c(=O)[nH]c(-c3cc(S(=O)(=O)N4CCN(C)CC4)ccc3OCC)nc12.O=C(O)CC(O)(CC(=O)O)C(=O)O [SILDENAFIL CITRATE]

Test: as §1, with “Z-004” for “Z-022”, “to” for “to mouse gut”, “ERS12561804” for “ERS12561821”
Conditions: 2 µM

Row | Bacterial Biotransformation | Compound
13 | Compound NOT metabolized | CCCc1nn(C)c2c(=O)[nH]c(-c3cc(S(=O)(=O)N4CCN(C)CC4)ccc3OCC)nc12.O=C(O)CC(O)(CC(=O)O)C(=O)O [SILDENAFIL CITRATE]

Test: as §1, with “Z-005” for “Z-022”, “to” for “to mouse gut”, “ERS12561805” for “ERS12561821”
Conditions: 2 µM

Row | Bacterial Biotransformation | Compound
14 | Compound NOT metabolized | CCCc1nn(C)c2c(=O)[nH]c(-c3cc(S(=O)(=O)N4CCN(C)CC4)ccc3OCC)nc12.O=C(O)CC(O)(CC(=O)O)C(=O)O [SILDENAFIL CITRATE]

Test: as §1, with “WLS-069” for “Z-022”, “human” for “mouse”, “ERS12561748” for “ERS12561821”
Conditions: 2 µM

Row | Bacterial Biotransformation | Compound
15 | Compound NOT metabolized | CCCc1nn(C)c2c(=O)[nH]c(-c3cc(S(=O)(=O)N4CCN(C)CC4)ccc3OCC)nc12.O=C(O)CC(O)(CC(=O)O)C(=O)O [SILDENAFIL CITRATE]

Test: as §1, with “WLS-052” for “Z-022”, “human” for “mouse”, “ERS12561747” for “ERS12561821”
Conditions: 2 µM

Row | Bacterial Biotransformation | Compound
16 | Compound NOT metabolized | CCCc1nn(C)c2c(=O)[nH]c(-c3cc(S(=O)(=O)N4CCN(C)CC4)ccc3OCC)nc12.O=C(O)CC(O)(CC(=O)O)C(=O)O [SILDENAFIL CITRATE]

Test: as §1, with “Z-006” for “Z-022”, “ERS12561806” for “ERS12561821”
Conditions: 2 µM

Row | Bacterial Biotransformation | Compound
17 | Compound NOT metabolized | CCCc1nn(C)c2c(=O)[nH]c(-c3cc(S(=O)(=O)N4CCN(C)CC4)ccc3OCC)nc12.O=C(O)CC(O)(CC(=O)O)C(=O)O [SILDENAFIL CITRATE]

Conditions: human gut metagenome, 24 h, 2 µM
Remark: another data set of the same source

Row | Bacterial Biotransformation | Compound
18 | Compound metabolized | CCCc1nn(C)c2c(=O)[nH]c(-c3cc(S(=O)(=O)N4CCN(C)CC4)ccc3OCC)nc12.O=C(O)CC(O)(CC(=O)O)C(=O)O [SILDENAFIL CITRATE]

Conditions: human gut metagenome, 24 h, 2 µM
Remark: another data set of the same source

Row | Bacterial Biotransformation | Compound
19 | Compound metabolized | CCCc1nn(C)c2c(=O)[nH]c(-c3cc(S(=O)(=O)N4CCN(C)CC4)ccc3OCC)nc12.O=C(O)CC(O)(CC(=O)O)C(=O)O [SILDENAFIL CITRATE]

Conditions: human gut metagenome, 24 h, 2 µM
Remark: another data set of the same source

Row | Bacterial Biotransformation | Compound
20 | Compound NOT metabolized | CCCc1nn(C)c2c(=O)[nH]c(-c3cc(S(=O)(=O)N4CCN(C)CC4)ccc3OCC)nc12.O=C(O)CC(O)(CC(=O)O)C(=O)O [SILDENAFIL CITRATE]
